{
  "source": "patent US20250090557A1",
  "about": "(priority 2020, published 2025)",
  "key": {"[1]": {"conditions": "mice, tissues including liver and kidney, ≥10 days oral supplementation; cited from earlier work"}, "[2]": {"system": "IFN-β and IFN-λ", "format": "cell-based, human"}, "[3]": {"system": "Nrf2", "assay": "Nrf2 protein levels in Calu3 cells (flow cytometry)", "format": "cell-based, human", "conditions": "infected and uninfected Calu3, pretreatment, data not shown"}, "[4]": {"system": "TOM70", "assay": "TOM70 protein levels in Calu3 cells (flow cytometry, immunofluorescence)", "format": "cell-based, human"}, "[5]": {"conditions": "cited from earlier work"}, "[6]": {"system": "cleaved caspase 3", "format": "cell-based, human"}, "[7]": {"system": "IL-6", "format": "cell-based, African green monkey"}, "[8]": {"system": "Keap1", "assay": "Keap1 protein levels in Calu3 cells (flow cytometry)", "format": "cell-based, human", "conditions": "infected and uninfected Calu3, pretreatment, data not shown"}, "[9]": {"system": "cleaved caspase 3", "format": "cell-based, African green monkey", "conditions": "Vero"}, "[10]": {"assay": "Toxicity and mutagenicity in mice", "conditions": "mouse, in vivo"}, "[11]": {"system": "Calu3 cells", "assay": "Seahorse mitochondrial respirometry and cellular bioenergetics in infected Calu3 cells", "experimental": "Flow cytometry was used to determine the cellular content of Calu3 cells for mitochondrial reactive oxygen species (mito-ROS) based on the median fluorescence intensity (MFI) of the fluorochrome MitoSOX Red and was compared to a negative cell population (fluorescence minus one negative control for staining) (ΔMFI). Flow cytometry was used to determine the percent of SARS-CoV-2 infected Calu3 cells positive for MitoSOX Red. Calu3 and Vero cells were treated with DMSO vehicle control (Ctrl) or the mitochondrial antioxidants MitoTEMPO (25-1000 nM) (72 h) or Mito-MES (25-1000 nM) (72 h) and were infected with a fluorescent mNeonGreen SARS-CoV-2 (icSARS-CoV-2-mNG) (MOI 0.3) (48 h). Immunofluorescent analysis of viral replication and cellular oxidative stress was performed at 48 h post-infection. […] Seahorse XF Analyzer was used to determine mitochondrial respirometry and cellular bioenergetics [oxygen consumption rate (OCR) and extracellular acidification rate (ECAR)] of live Calu3 cells treated with Mito-MES (25-1000 nM) or vehicle control (ctrl) (72 h) and infected with SARS-CoV-2 (MOI 0.1) (48 h). […] Viral replication was determined by TCID50-assay (FIG. 3-d), cell cytotoxicity was assessed by the XTT assay in uninfected cells treated with dTPP (0.01-10 μM) (72 h) (FIG. 3-e). […]"}, "[12]": {"system": "SARS-CoV-2", "format": "cell-based"}, "[13]": {"system": "Vero cells", "conditions": "uninfected Vero cultures, 10-1000 nM"}, "[14]": {"system": "ACE2, CD147, NRP1 and TMPRSS2", "assay": "Host entry factor protein levels in Calu3 cells (flow cytometry)", "format": "cell-based, human", "conditions": "Calu3, compared to uninfected cells, data not shown"}, "[15]": {"system": "SARS-CoV-2", "assay": "SARS-CoV-2 infection of HEK293T-hACE2 cells (flow cytometry)", "format": "cell-based", "conditions": "HEK293T-hACE2, 100 nM, 72 h"}, "[16]": {"system": "IL-1β", "format": "cell-based, human", "conditions": "infected Calu3 supernatants"}, "[17]": {"system": "SARS-CoV-2", "assay": "Post-exposure prophylaxis in two household-exposed parents (case report)", "format": "in vivo, human", "excerpt": "FIG. 8-a show the timeline of exposure, symptoms and diagnostic tests in household. Two parents [[…], A1 with history of chronic myelogenous leukemia (CML) and healthy parent 39 years, A2] were notified on Dec. 5, 2020 [defined as day 5 (D5)], that the schoolteacher (T1) of their child (C1) tested positive for SARS-CoV-2 and developed symptoms of Covid-19. C1 had 6-h exposure to T1 on November 30 (with masks) (D0). The family had no other exposure to any other person between November 20-30 (D-10 to D0) given Thanksgiving Day on November 26 (D-4). Several children and parents from the same school class were infected with Covid-19 within the first 2 weeks of December. C1 developed fever (100.4° F.;38° C.) and fatigue 2.5 days after exposure (DO) that lasted 3 days (D2-D5) and remained asymptomatic since then. The second child (C2) was asymptomatic until D12 when they developed fever (100.4° F.;38° C.), fatigue and coryza on D12-D14. A1 and A2 started Mito-MES on D4. […] A1, A2, C1 and C2 had fifteen (in total) negative NP SARS-CoV-2 PCR and each parent had 3 negative SARS-CoV-2 IgG serology over a period of 6 weeks (last NP PCR was on D42 and last SARS-CoV-2 IgG serology was on D45). The well-defined epidemiologic history around a major holiday and the timing (3-7 days) of development of symptoms in both children, confirmed that they both had Covid-19.\nTwo parents ([…], A1, and parent 39 years, A2) residing in Los Angeles, California were notified on Dec. 5, 2020 (defined as day 5 (D5); FIG. 8-a, C), that the schoolteacher (T1) of their child (C1) tested positive for SARS-CoV-2 and developed symptoms of Covid-19. C1 had 6-h exposure to T1 on November 30 (with masks) (DO). The family had no other exposure to any other person between November 20-30 (D-10 to DO) given Thanksgiving Day on November 26 (D-4). […]\nOne important consideration with COVID-19 testing is that it is often unclear how exactly the NP swab was obtained (by healthcare worker or not and whether the posterior or anterior nasopharynx were assessed). […]"}, "[18]": {"system": "SARS-CoV-2", "format": "cell-based", "remark": "listed apart in the source"}},
  "note": "Where two headings read alike, the source gives them in different places.",
  "data": [
    {"smiles": "COC1=C(OC)C(=O)C(CCCCCCCCCC[P+](c2ccccc2)(c2ccccc2)c2ccccc2)=C(C)C1=O.CS(=O)(=O)[O-]", "note": "[Mito-MES, 10-(4,5-dimethoxy-2-methyl-3,6-dioxo-1,4-cyclohexadienyl) decyl triphenylphosphonium methanesulfonate]", "values": [
      {"measurement": "accumulation in tissues", "setting": "[1]", "value": "50 to 700 pmol/g (wet weight)"},
      {"measurement": "total cellular IFN-β and IFN-λ protein levels (ELISA, lysates)", "setting": "[2]; infected Calu3, 100-1000 nM", "value": "independently confirmed"},
      {"measurement": "secretion of IFN-β and IFN-λ (ELISA, supernatants)", "setting": "[2]; infected Calu3, 48 h post infection, 100-1000 nM", "value": "did not"},
      {"measurement": "protein levels of Nrf2", "setting": "[3]", "value": "did not impact protein levels of Nrf2"},
      {"measurement": "TOM70 protein levels (flow cytometry)", "setting": "[4]", "value": "increased TOM70 protein levels"},
      {"measurement": "TOM70 protein levels (immunofluorescence)", "setting": "[4]", "value": "dose-dependent increase in TOM70 protein levels"},
      {"measurement": "average elevation of fasting plasma concentrations", "setting": "[5]; chronic supplementation about 40-80 mg/day, after about 10 days", "value": "about 5 ng/mL"},
      {"measurement": "plasma concentration", "setting": "[5]; humans, single 40 mg oral dose, after 24 h", "value": "about 2 ng/ml"},
      {"measurement": "percent of infected cells positive for cleaved caspase 3 and MFI per cell (flow cytometry)", "setting": "[6]; Calu3, 100 nM", "value": "inhibits or reduces SARS-CoV-2-induced increase"},
      {"measurement": "SARS-CoV-2-induced cleavage of caspase 3 (immunofluorescence)", "setting": "[6]; Calu3, 10-1000 nM", "value": "reduced by Mito-MES treatment"},
      {"measurement": "secretion of IL-6 resulting from SARS-CoV-2 infection (ELISA)", "setting": "[7]", "value": "attenuated the increase in secretion of IL-6"},
      {"measurement": "protein levels of Keap", "setting": "[8]", "value": "reduced protein levels of Keap"},
      {"measurement": "percent of infected cells positive for cleaved caspase 3 and MFI per cell (flow cytometry)", "setting": "[9]; 100 nM", "value": "inhibits or reduces SARS-CoV-2-induced increase"},
      {"measurement": "SARS-CoV-2-induced cleavage of caspase 3 (immunofluorescence)", "setting": "[9]; 10-1000 nM", "value": "reduced by Mito-MES treatment"},
      {"measurement": "human equivalent dose relative to the doses administered to A1 and A2 (20 mg/day)", "setting": "[10]", "value": "about 60 fold"},
      {"measurement": "ROS", "setting": "[11]; Calu3, 1000 nM", "value": "increased ROS"},
      {"measurement": "mitochondrial respirometry", "setting": "[11]; Calu3, 50-1000 nM", "value": "reduced mitochondrial respirometry"},
      {"measurement": "concentration at which potent antiviral activity is exhibited (immunofluorescence and PCR)", "setting": "[12]; Calu3", "value": "≤ 10", "unit": "nM"},
      {"measurement": "viral titers vs vehicle control (TCID50)", "setting": "[12]; Calu3, 10 nM Mito-MES alone", "value": "reduced viral titers"},
      {"measurement": "reduction of release of progeny virus (TCID50 of cell supernatants)", "setting": "[12]; Calu3, 100 nM and 1000 nM", "value": "> 2", "unit": "logs"},
      {"measurement": "cytotoxicity (XTT assay)", "setting": "[13]", "value": "no observed cytotoxicity"},
      {"measurement": "protein levels of ACE2, TMPRSS2, NRP1 and CD147", "setting": "[14]", "value": "Neither SARS-CoV-2 infection nor Mito-MES significantly modulates"},
      {"measurement": "percent of SARS-CoV-2 infected cells (flow cytometry)", "setting": "[15]", "value": "significantly reduced the percent of SARS-CoV-2 infected human non-cancerous HEK293T epithelial cells"},
      {"measurement": "secretion of IL-1β (Luminex)", "setting": "[16]", "value": "tended (p=0.09) to reduce the secretion of IL-IP"},
      {"measurement": "inflammation markers in plasma", "setting": "[17]; both parents, 6 timepoints over 6 weeks", "value": "normal CRP, ferritin and IL-6 plasma levels"},
      {"measurement": "plasma IgG to SARS-CoV-2 S1 protein", "setting": "[17]; each parent, three timepoints over 5 weeks", "value": "undetectable levels of plasma IgG to SARS-CoV-2 S1 protein"},
      {"measurement": "symptoms and virological/serological confirmation of infection", "setting": "[17]; two parents, 20 mg/day oral, 6 weeks, repeated household exposure", "value": "remained asymptomatic and without virological and serological confirmation of infection"},
      {"measurement": "antiviral activity by immunofluorescence (spike S protein)", "setting": "[18]", "value": "modest antiviral activity"},
      {"measurement": "viral genomic RNA in cell lysates (qPCR)", "setting": "[18]; Vero cells", "value": "confirmed by qPCR"},
      {"measurement": "percent of infected cells positive for N protein and Spike S protein (flow cytometry)", "setting": "[18]; Vero cells, viable single cells", "value": "reduced the percent of infected cells"},
      {"measurement": "antiviral activity relative to positive control remdesivir (TCID50)", "setting": "[18]; Vero cells, vs 5 μM remdesivir", "value": "modest compared to 5 μM remdesivir"}
    ]}
  ]
}
